Source: US8937167B2 (Washington University, priority 2009, dated 2015)
“And” between values parts separate entries of the source, which are not always exact repeats. Equal entries are not always repeated.

Key:
UTI89 = assay: Chronic cystitis mouse model, bladder titers after oral mannoside treatment; format: in vivo, E. coli (UPEC); host C3H/HeN mouse; conditions: PO 50 mg/kg, 6 hours posttreatment, relative to PBS
Protocol: Mice were infected with the uropathogenic E. coli (UPEC) strain UTI89. Animals that established chronic infection were treated at day 12 post infection with 5 doses of 50 mg/kg of Mannoside 8 administered 8 h apart (mice treated with PBS in the same way were included as controls). Mice were sacrificed 48 h post initial dose and bladder titers were enumerated.
In order to determine the therapeutic potential of 6 for treating chronic UTIs, a unique preclinical murine model was adopted. In humans, the ultimate outcome of UPEC infection of the urinary tract ranges from asymptomatic bacteriuria to acute self-limiting infection to chronic/recurrent UTI. Similarly, the outcome of UTI in C3H/HeN mice ranges from self-limiting to long-lasting, chronic cystitis characterized by persistent, high titer bacteriuria (>10^4 colony forming units (CFU)/ml), high titer bacterial bladder burdens at sacrifice >2 weeks post-infection (wpi), chronic inflammation, and urothelial necrosis. […] Thus, C3H/HeN mice were infected with 1×10^7 CFU of UTI89 and mice developing chronic cystitis, as determined by persistent urine titers of […] through 2 weeks post infection (wpi), were PO treated at 2 wpi with 6 at a single dose of 100 or 50 mg/kg to evaluate the ability of mannoside to treat UTI. 6 hours post-treatment bacterial counts in the bladder were enumerated. […]

FimH = FimH (Escherichia coli, UniProt Q1R2J4);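 further: hemagglutination inhibition of guinea pig erythrocytes agglutinated by type 1 piliated uropathogenic E. coli via FimH mannose binding, quantified through serial dilutions of compound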

CNC(=O)c1cc(C(=O)NC)cc(-c2ccc(O[C@H]3O[C@H](CO)[C@@H](O)[C@H](O)[C@@H]3O)c(C(F)(F)F)c2)c1 [Compound 10, N1,N3-dimethyl-5-[3-(trifluoromethyl)-4-[(2R,3S,4S,5S,6R)-3,4,5-trihydroxy-6-(hydroxymethyl)tetrahydropyran-2-yl]oxy-phenyl]benzene-1,3-dicarboxamide]
reduction in bladder bacterial counts (UTI89): 4 log and 3 log | fold more potent in vitro (FimH; 10 relative to 8, Examples 25-29 numbering): 8 fold | HAI (FimH; Examples 25-29 numbering): 8 nM | fold improvement (HAI) (FimH; over butyl-α-D-mannoside): 15,000 fold | fold better (HAI) (FimH; than lead 6, Examples 25-29 numbering): 50 fold
